{
  "source": "patent US20250376469A1",
  "about": "“INDOLIZINE DERIVATIVES FOR TREATING TRPM3-MEDIATED DISORDERS” (Katholieke Universiteit Leuven, priority 2022, published 2025)",
  "data": [
    {"target": "T1, mouse TRPM3α2 (mTRPM3) ion channel (Mus musculus, UniProt J9SQF3)", "T1 construct": "expressed in transfected cells; host or cells: flip-in HEK293", "T1 sequence (J9SQF3 1-1709 isoform J9SQF3-12)": "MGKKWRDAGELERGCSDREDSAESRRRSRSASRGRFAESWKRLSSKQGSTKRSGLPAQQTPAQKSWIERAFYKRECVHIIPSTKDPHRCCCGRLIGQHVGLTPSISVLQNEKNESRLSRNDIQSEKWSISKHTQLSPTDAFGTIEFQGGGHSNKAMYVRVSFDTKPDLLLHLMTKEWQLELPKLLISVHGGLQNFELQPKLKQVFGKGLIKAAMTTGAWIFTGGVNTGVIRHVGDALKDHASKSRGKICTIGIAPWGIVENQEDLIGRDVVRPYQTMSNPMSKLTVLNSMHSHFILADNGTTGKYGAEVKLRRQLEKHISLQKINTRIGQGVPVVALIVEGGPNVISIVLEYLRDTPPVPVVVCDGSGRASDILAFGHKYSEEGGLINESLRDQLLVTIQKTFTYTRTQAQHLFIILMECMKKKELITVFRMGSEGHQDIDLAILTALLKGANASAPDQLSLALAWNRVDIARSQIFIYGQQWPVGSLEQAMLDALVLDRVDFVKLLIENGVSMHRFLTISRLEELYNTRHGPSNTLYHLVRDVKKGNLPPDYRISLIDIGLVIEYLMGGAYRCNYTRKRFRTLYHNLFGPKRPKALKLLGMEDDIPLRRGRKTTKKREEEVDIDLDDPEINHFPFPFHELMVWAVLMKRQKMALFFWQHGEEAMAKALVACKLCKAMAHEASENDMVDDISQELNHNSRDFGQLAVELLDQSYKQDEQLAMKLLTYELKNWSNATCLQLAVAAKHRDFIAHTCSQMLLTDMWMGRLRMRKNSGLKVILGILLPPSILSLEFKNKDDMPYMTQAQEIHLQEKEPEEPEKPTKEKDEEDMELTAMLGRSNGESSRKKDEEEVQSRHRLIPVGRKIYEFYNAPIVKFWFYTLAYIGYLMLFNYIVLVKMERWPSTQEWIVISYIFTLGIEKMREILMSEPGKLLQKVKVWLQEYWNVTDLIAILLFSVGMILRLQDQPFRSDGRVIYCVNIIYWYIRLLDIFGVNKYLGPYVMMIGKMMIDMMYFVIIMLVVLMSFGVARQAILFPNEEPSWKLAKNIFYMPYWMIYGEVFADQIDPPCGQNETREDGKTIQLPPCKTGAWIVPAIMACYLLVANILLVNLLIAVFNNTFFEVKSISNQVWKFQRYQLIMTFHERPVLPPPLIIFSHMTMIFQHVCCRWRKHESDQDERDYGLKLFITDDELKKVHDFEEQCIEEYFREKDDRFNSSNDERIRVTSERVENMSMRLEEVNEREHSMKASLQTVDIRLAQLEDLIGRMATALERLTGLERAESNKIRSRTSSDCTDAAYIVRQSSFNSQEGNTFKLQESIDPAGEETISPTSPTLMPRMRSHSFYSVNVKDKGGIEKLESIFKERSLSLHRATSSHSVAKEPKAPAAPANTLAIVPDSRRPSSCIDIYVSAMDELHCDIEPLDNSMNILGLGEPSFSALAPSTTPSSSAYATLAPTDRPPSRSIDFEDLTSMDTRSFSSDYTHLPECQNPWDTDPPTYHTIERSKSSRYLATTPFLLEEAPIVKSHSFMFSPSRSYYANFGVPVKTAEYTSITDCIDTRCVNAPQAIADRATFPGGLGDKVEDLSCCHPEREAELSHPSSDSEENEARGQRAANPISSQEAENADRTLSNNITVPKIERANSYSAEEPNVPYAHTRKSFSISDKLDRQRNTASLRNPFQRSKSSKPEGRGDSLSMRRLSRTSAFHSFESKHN", "assay": "TRPM3 ion channel driven Ca2+ uptake (Fluo-4 AM assay, pregnenolone sulfate stimulated)", "type": "cell-based", "details": "TRPM3 overexpressing flip-in HEK293 cells, channel opened with pregnenolone sulfate (PS) 50 μM, 2.4 mM Ca2+", "experimental": "In order to monitor the inhibition of the mouse TRPM3α2 (mTRPM3) ion channel by the compounds of the invention, a cellular system making use of an mTRPM3alpha2 or hTRPM3 overexpressing cell line (flip-in HEK293) was used. The TRPM3 channel was stimulated/opened with Pregnenolone sulfate (PS) (50 μM) which results in Ca^2+ influx.\nFor mTRPM3, the intracellular Ca^2+ was measured with a Calcium responsive dye, Fluor-4 AM ester (Invitrogen). Cells were cultured until a confluence of 80-90%, washed with Versene (Invitrogen) and detached from the surface by a short incubation with 0.05% Trypsin (Invitrogen). The trypsination process was stopped by the addition of complete cell culture medium (DMEM, glutamax, 10% FCS, NEAA, Pen-Strep). Cells were collected and resuspended in Krebs buffer without Calcium at RT.\nPrior the cell seeding (±2000 cells/well into a black, 384 well plate (Greiner)) the diluted compound was added in the assay plate, together with the PS dissolved in Krebs buffer containing Calcium. […] Directly after cell addition the plates were read on an Envision fluorescence reader (Perkin Elmer) by an Excitation of 485 nm and emission at 535 nm.\nChannel inhibition was calculated compared to a non-PS stimulated control versus a condition stimulated with PS (50 μM) with vehicle. The ability of a the compounds of the invention to inhibit this activity was determined as: Percentage inhibition=[1−((RFU determined for sample with test compound present−RFU determined for sample with positive control inhibitor) divided by (RFU determined in the presence of vehicle−RFU determined for sample with positive control inhibitor))]*100.\nThe activities of the Example compounds […] tested are depicted in the table below. The activity ranges A, B and C refer to IC50 values in the Fluo-4 AM assay as follows: […]", "units": {"IC50": "µM"}, "values": [
      {"smiles": "Cc1cc2ccc(OCC(F)F)cn2c1C(=O)NC1CNCCC1(F)F", "note": "(single isomer, unassigned) [Cpd 027 - En1]", "IC50": "1 to 20"},
      {"smiles": "CC(=O)C(C)NC(=O)c1c(C)cc2ccc(OCC3CC3)cn12", "note": "(single isomer, unassigned) [Cpd 023 - En1]", "IC50": "1 to 20"},
      {"smiles": "Cc1cc2ccc(OCc3ccccn3)cn2c1C(=O)NC(C)C(N)=O", "note": "(single isomer, unassigned) [Cpd 018 - En2]", "IC50": "1 to 20"},
      {"smiles": "Cc1ncc(COc2ccc3cc(C)c(C(=O)NC(C)(CO)CO)n3c2)s1", "note": "[Cpd 030, N-(1,3-dihydroxy-2-methylpropan-2-yl)-2-methyl-6-[(2-methyl-1,3-thiazol-5-yl)methoxy]indolizine-3-carboxamide]", "IC50": "< 1"},
      {"smiles": "Cc1cc2ccc(OCc3ccccn3)cn2c1C(=O)NC(C)(CO)CC(F)F", "note": "(single isomer, unassigned) [Cpd 036 - En2]", "IC50": "1 to 20"},
      {"smiles": "Cc1cc2ccc(OCc3cccnc3)cn2c1C(=O)NC(CO)CC(F)(F)F", "note": "(single isomer, unassigned) [Cpd 042 - En2]", "IC50": "1 to 20"},
      {"smiles": "COCC(C)(CO)NC(=O)c1c(C)cc2ccc(OCc3ccccn3)cn12", "note": "(single isomer, unassigned) [Cpd 032 - En2]", "IC50": "< 1"},
      {"smiles": "CC(=O)C(C)NC(=O)c1c(C)cc2ccc(OCC(F)F)cn12", "note": "(single isomer, unassigned) [Cpd 028 - En2]", "IC50": "> 20"},
      {"smiles": "Cc1cc2ccc(OCc3ccccc3F)cn2c1C(=O)N[C@@H](CO)C(N)=O", "note": "[Cpd 003, (2S)-2-({6-[(2-fluorophenyl)methoxy]-2-methylindolizin-3-yl}formamido)-3-hydroxypropanamide]", "IC50": "< 1"},
      {"smiles": "Cc1cc2ccc(OCc3ccccc3F)cn2c1C(=O)NC1(CO)CCNC1=O", "note": "(single isomer, unassigned) [Cpd 007 - En1]", "IC50": "< 1"},
      {"smiles": "Cc1ncc(COc2ccc3cc(C)c(C(=O)NC(C)(CO)C(N)=O)n3c2)s1", "note": "(single isomer, unassigned) [Cpd 029 - En1, 3-hydroxy-2-methyl-2-({2-methyl-6-[(2-methyl-1,3-thiazol-5-yl)methoxy]indolizin-3-yl}formamido)propanamide]", "IC50": "< 1"},
      {"smiles": "Cc1cc2ccc(OCC(F)F)cn2c1C(=O)NC(C)(CO)CO", "note": "[Cpd 025, 6-(2,2-difluoroethoxy)-N-(1,3-dihydroxy-2-methylpropan-2-yl)-2-methylindolizine-3-carboxamide]", "IC50": "1 to 20"},
      {"smiles": "Cc1cc2ccc(OCC(F)F)cn2c1C(=O)NC1CNCCC1(F)F", "note": "(single isomer, unassigned) [Cpd 027 - En2]", "IC50": "> 20"},
      {"smiles": "CC(=O)C(C)NC(=O)c1c(C)cc2ccc(OCC3CC3)cn12", "note": "(single isomer, unassigned) [Cpd 023 - En2]", "IC50": "1 to 20"},
      {"smiles": "Cc1cc2ccc(OCc3ccccn3)cn2c1C(=O)NC(CO)C(N)=O", "note": "(single isomer, unassigned) [Cpd 033 - En1]", "IC50": "1 to 20"},
      {"smiles": "Cc1cc2ccc(OCc3scnc3C)cn2c1C(=O)NC1(CO)CCOCC1", "note": "[Cpd 001, N-[4-(hydroxymethyl)oxan-4-yl]-2-methyl-6-[(4-methyl-1,3-thiazol-5-yl)methoxy]indolizine-3-carboxamide]", "IC50": "1 to 20"},
      {"smiles": "Cc1cc2ccc(OCc3ccccn3)cn2c1C(=O)NC(C)(CO)C(N)=O", "note": "(single isomer, unassigned) [Cpd 014 - En1]", "IC50": "< 1"},
      {"smiles": "Cc1cc2ccc(OCC3CC3)cn2c1C(=O)NC1(CO)CCNC1=O", "note": "(single isomer, unassigned) [Cpd 021 - En1]", "IC50": "< 1"},
      {"smiles": "Cc1cc2ccc(OCc3ccccc3)cn2c1C(=O)NC(CO)C(N)=O", "note": "(single isomer, unassigned) [Cpd 034 - En2]", "IC50": "< 1"},
      {"smiles": "COc1ncccc1COc1ccc2cc(C)c(C(=O)NC3(CO)CCNC3=O)n2c1", "note": "(single isomer, unassigned) [Cpd 038 - En1]", "IC50": "< 1"},
      {"smiles": "Cc1cc2ccc(OCc3c(F)cnn3C)cn2c1C(=O)NC(CO)CC(F)(F)F", "note": "(single isomer, unassigned) [Cpd 045 - En2]", "IC50": "> 20"},
      {"smiles": "Cc1cc2ccc(OCc3ccccc3F)cn2c1C(=O)NC1(CO)CCNC1=O", "note": "(single isomer, unassigned) [Cpd 007 - En2]", "IC50": "1 to 20"}
    ]}
  ]
}
